# Laboratory results published in the Kinase Knowledgebase extract (Sharma et al. 2016).
# pIC50: −log10 of the molar value.
# Molecular target: EGFR, P00533 [L858R]
# Sequence (P00533 whole entry L858R, looked up): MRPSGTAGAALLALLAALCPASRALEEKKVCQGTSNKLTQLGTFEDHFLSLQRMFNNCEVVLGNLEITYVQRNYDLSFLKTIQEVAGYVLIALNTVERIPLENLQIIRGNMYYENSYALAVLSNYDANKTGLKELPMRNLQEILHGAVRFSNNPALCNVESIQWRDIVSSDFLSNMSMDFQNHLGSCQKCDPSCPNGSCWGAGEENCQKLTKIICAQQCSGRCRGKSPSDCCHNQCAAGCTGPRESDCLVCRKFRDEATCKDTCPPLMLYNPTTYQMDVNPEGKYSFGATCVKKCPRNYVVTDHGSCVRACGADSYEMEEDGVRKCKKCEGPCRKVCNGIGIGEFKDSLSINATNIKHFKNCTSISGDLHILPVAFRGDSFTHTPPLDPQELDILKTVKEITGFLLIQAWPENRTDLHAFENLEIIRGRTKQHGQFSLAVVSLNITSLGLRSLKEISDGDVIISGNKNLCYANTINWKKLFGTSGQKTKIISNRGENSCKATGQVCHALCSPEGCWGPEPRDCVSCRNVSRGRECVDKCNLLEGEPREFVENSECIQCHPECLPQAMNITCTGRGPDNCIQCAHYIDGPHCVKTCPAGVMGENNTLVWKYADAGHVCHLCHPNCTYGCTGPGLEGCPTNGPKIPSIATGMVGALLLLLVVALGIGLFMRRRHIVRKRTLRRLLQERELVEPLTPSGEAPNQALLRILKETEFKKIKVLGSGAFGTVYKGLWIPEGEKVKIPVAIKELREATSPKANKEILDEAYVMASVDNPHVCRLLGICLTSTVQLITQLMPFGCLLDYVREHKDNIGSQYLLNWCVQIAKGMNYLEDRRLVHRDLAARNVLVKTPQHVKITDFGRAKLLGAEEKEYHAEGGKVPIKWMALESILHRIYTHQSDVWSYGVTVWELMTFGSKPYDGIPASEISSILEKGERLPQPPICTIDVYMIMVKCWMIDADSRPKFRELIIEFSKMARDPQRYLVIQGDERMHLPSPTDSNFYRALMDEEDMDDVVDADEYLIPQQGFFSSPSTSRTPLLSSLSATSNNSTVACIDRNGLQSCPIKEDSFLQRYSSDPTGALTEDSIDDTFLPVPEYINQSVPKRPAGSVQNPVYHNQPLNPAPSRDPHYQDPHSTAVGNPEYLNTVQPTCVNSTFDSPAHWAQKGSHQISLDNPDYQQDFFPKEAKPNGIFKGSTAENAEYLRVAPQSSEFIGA
row,pIC50,SMILES
1,7.20,O=C(Nc1cccc(Nc2cc(Nc3cccc(C(F)(F)F)c3)ncn2)c1)C1CC1

# Molecular target: EGFR (UniProt P00533)
# Sequence (P00533 whole entry, looked up): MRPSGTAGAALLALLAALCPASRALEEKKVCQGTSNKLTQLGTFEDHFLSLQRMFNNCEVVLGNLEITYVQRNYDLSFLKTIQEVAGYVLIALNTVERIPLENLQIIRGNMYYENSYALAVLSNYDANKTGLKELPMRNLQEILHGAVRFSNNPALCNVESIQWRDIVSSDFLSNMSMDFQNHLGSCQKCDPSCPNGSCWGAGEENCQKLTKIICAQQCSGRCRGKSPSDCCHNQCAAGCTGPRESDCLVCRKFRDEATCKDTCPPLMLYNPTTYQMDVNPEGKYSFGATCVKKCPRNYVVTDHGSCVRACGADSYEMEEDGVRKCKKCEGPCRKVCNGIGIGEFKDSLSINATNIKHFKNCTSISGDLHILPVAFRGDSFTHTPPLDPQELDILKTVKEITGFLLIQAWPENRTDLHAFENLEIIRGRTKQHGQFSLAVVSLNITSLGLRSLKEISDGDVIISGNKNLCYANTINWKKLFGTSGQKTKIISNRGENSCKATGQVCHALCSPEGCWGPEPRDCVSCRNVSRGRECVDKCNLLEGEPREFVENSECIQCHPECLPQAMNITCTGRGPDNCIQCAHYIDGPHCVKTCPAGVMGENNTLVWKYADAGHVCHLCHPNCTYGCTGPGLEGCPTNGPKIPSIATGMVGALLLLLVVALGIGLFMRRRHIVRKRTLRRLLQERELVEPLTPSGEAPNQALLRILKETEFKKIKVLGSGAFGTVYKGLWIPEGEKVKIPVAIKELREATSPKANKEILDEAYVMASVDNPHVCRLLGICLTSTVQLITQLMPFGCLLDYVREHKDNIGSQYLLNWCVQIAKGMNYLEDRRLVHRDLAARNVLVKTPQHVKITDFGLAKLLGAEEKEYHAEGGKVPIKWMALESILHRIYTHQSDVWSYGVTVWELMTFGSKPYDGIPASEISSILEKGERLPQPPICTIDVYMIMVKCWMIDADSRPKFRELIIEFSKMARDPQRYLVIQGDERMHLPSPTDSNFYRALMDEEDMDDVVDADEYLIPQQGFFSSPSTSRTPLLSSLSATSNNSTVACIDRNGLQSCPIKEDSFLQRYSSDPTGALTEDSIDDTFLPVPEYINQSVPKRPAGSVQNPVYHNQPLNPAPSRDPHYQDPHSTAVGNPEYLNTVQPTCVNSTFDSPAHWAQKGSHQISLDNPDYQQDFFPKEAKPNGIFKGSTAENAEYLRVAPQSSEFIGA
row,SMILES,pIC50
1,COc1ccc(OC)c(-c2cc(Nc3cccc(NC(=O)C4CC4)c3)ncn2)c1,< 5.00
2,COc1ccc(Cl)cc1-c1cc(Nc2cccc(NC(=O)C3CC3)c2)ncn1,< 5.00
3,FC(F)(F)c1cccc(Nc2cc(Nc3cccc(C(F)(F)F)c3)ncn2)c1,7.49
4,Cc1ccccc1Nc1cc(Nc2cccc(NC(=O)C3CC3)c2)ncn1,8.15
5,FC(F)(F)c1cccc(Oc2cc(Oc3cccc(C(F)(F)F)c3)ncn2)c1,< 5.00
6,O=C(Nc1cccc(Nc2cc(NCc3ccc(C(F)(F)F)cc3)ncn2)c1)C1CC1,5.75
7,COc1ccc(Nc2cc(Nc3cccc(C(F)(F)F)c3)ncn2)cc1NC(=O)C1CCCCC1,5.44
8,FC(F)(F)c1cccc(Nc2ccnc(Nc3cccc(C(F)(F)F)c3)c2)c1,< 5.00
9,COc1ccc(Nc2cc(Nc3cccc(C(F)(F)F)c3)ncn2)cc1NC(=O)C1CC1,6.92
10,O=C(Nc1cccc(Nc2cc(Nc3ccccc3Cl)ncn2)c1)C1CC1,7.46

# The next lines start with the values.
row,pIC50,SMILES
1,7.72,CN(c1cccc(C(F)(F)F)c1)c1cc(Nc2cccc(NC(=O)C3CC3)c2)ncn1
2,< 5.00,O=C(Nc1cccc(Nc2ccnc(Nc3cccc(C(F)(F)F)c3)n2)c1)C1CC1
3,7.68,O=C(Nc1cccc(Nc2cc(Nc3cccc(C(F)(F)F)c3)ncn2)c1)C1CC1
4,< 5.00,O=C(Nc1cccc(Nc2nccc(Nc3cccc(C(F)(F)F)c3)n2)c1)C1CC1
5,< 5.00,CN(c1cccc(NC(=O)C2CC2)c1)c1cc(Nc2cccc(C(F)(F)F)c2)ncn1
6,7.85,O=C(Nc1cccc(Nc2cc(Oc3cccc(C(F)(F)F)c3)ncn2)c1)C1CC1

# Molecular target: EGFR, P00533 [L861Q]
# Sequence (P00533 whole entry L861Q, looked up): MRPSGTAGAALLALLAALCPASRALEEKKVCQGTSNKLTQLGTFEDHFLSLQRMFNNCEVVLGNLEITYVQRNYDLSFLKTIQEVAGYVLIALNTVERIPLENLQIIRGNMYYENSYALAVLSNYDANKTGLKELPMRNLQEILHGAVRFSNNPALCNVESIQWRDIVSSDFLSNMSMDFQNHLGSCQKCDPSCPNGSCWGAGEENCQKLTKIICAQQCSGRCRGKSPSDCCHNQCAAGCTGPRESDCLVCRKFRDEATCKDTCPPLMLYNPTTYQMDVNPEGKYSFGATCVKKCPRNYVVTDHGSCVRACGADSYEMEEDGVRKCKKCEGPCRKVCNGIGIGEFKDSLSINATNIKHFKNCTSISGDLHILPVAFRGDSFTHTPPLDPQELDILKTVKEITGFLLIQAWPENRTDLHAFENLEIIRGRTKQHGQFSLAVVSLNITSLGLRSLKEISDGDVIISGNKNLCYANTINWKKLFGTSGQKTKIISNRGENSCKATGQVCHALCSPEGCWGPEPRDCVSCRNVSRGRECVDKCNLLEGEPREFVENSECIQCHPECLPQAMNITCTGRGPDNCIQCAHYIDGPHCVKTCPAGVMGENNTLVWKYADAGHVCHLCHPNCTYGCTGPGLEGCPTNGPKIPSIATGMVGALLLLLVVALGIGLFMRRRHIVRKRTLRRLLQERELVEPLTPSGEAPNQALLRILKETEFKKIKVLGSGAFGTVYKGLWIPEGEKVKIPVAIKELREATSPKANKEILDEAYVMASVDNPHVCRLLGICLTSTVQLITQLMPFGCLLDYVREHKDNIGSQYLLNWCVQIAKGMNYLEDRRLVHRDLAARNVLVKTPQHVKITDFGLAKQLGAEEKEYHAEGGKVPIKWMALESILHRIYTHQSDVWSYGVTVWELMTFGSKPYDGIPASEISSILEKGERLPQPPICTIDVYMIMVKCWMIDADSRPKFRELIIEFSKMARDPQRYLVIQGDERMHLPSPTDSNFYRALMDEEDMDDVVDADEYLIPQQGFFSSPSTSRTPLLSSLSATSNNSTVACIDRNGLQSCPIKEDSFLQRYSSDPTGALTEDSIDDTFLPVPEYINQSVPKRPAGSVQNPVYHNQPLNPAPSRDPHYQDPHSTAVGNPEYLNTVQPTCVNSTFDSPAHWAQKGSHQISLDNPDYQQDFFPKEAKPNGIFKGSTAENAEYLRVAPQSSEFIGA
row,pIC50,SMILES
1,8.40,O=C(Nc1cccc(Nc2cc(Nc3cccc(C(F)(F)F)c3)ncn2)c1)C1CC1
